Data taken from patent US20100075907A1, “NEUROMEDIN U RECEPTOR AGONISTS AND USES THEREOF” (priority 2006, published 2010).
Non-standard residues stand in square brackets, D forms with d. Residues, ends and D or L forms follow the SMILES beside them. No end group written: not given here. hArg = N=C(N)NCCCC[C@H](N)C(=O)O; dNle = CCCC[C@@H](N)C(=O)O

Assays:
hNMUR2 = hNMUR2 (Homo sapiens, UniProt Q9GZQ4); test: 125I-hNMU-25 binding assay, human NMUR2 membranes; set-up: expressed in transfected cells; host or cells: HEK-293 FLP-In cells (pcDNA5); HEK-293/aeq17 lines (pcDNA3.1) were also made; % inhibition of NMU-25 binding / % Activity: concentration or dose not given beside the values
Chain of hNMUR2 (Q9GZQ4 whole entry): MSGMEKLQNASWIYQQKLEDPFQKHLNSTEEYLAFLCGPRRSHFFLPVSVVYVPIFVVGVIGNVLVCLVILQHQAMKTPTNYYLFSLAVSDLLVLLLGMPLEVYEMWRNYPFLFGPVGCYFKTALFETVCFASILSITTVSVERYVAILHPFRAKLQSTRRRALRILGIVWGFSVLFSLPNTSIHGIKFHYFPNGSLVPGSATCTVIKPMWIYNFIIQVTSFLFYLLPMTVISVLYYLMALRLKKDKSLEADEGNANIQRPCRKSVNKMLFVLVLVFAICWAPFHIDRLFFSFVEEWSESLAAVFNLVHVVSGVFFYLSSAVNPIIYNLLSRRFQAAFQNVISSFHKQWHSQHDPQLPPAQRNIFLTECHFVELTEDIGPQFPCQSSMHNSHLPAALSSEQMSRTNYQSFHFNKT
Method: (§1) Confluent cell monolayers expressing NMU receptors (the HEK cells described above) were harvested with phosphate buffered saline, collected by centrifugation, and resuspended in membrane buffer (50 mM TrisCl pH 7.4, 5 mM MgCl2, 1× Protease Inhibitor Cocktail, 10 μM phosphoramidon). After the cell pellet was homogenized, the solution was centrifuged at 18,000 rpm for 20 minutes at 4° C. The pellet was resuspended in membrane buffer to yield a final concentration of 0.5-5 μg/μL of membrane and stored at −80° C.
(§2) Experiments were performed in assay buffer (25 mM TrisCl, pH 7.4, 10 mM MgCl2, 2 mM EDTA, 1× Protease Inhibitor Cocktail, 100 μg/mL Bacitricin, 10 μM phosphoramidon) in 200 μL volumes in a 96-well format using 2-5 μg of membrane and 0.1 nM ^125I-hNMU-25 (about 12,000 cpm/well). For non-specific binding, 1 μM hNMU-25 was added. About 5 μL of peptides were added to measure antagonist activity, and the entire reaction was incubated at room temperature with shaking for 80 minutes. The reaction was terminated by rapid filtration through 0.3% poly-ethylenimine presoaked Millipore 96-well filter plates and washed with ice-cold buffer (5 mM TrisCl pH 7.4, 10 mM MgCl2, 2.5 mM EDTA, 0.04% Triton X-100). Plates were air-dried overnight at room temperature and recovered radioactivity was determined by standard scintillation counting. IC50 values were determined using GraphPad Prism software.
(§3) Concentration-response curves and radioligand-binding data were fitted using Prism (GraphPad Software). Results are summarized below in Tables 8 and 9.

hNMUR1 = target: T1, hNMUR1 (Homo sapiens, UniProt Q9HB89); test: 125I-hNMU-25 binding assay, human NMUR1 membranes; set-up: expressed in transfected cells; host or cells: HEK-293 FLP-In cells (pcDNA5); HEK-293/aeq17 lines (pIRES-puro) were also made; % inhibition of NMU-25 binding / % Activity: concentration or dose not given beside the values
T1 sequence (Q9HB89 1-426): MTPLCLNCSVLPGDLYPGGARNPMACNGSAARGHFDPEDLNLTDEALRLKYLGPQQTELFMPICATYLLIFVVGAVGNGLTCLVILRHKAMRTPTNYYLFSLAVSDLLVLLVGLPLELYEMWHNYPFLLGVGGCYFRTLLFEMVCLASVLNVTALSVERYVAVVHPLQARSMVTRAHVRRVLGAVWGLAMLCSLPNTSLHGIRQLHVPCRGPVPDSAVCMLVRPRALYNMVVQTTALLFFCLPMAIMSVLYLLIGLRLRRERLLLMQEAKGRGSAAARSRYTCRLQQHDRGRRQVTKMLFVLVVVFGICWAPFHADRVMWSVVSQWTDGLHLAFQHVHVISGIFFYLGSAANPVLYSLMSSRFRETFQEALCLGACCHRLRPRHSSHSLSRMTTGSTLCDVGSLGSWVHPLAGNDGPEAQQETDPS
Method: as §1, §2, §3

[1] = Table 8, HEK-hR1, second (binding) column pair

Molecule	% Activity (hNMUR2; Table 9, HEK-hR2, binding) [%]	% Activity (hNMUR1; Table 9, HEK-hR1, binding) [%]	IC50 (hNMUR1; Table 9, HEK-hR1, binding) [nM]	% Activity (hNMUR2; Table 8, HEK-hR2, binding) [%]	IC50 (hNMUR2; Table 8, HEK-hR2, binding) [nM]	% Activity (hNMUR1; Table 8, HEK-hR1, binding) [%]	IC50 (hNMUR1; [1]) [nM]	IC50 (hNMUR2; Table 9, HEK-hR2, binding) [nM]
CC(C)C[C@H](NC(=O)[C@H](Cc1c[nH]c2ccccc12)NC(=O)[C@@H](N)Cc1ccccc1)C(=O)N[C@@H](Cc1ccccc1)C(=O)N[C@@H](CCCNC(=N)N)C(=O)N1CCC[C@H]1C(=O)N[C@@H](CCCCNC(=N)N)C(=O)N[C@@H](CC(N)=O)C(N)=O [Agonist I, FWLFRP-(Harg)-N-CONH2] (H-FWLFRP[hArg]N-NH2)	90	23	> 1000	–	–	–	–	–
H-YFGWRPRN-NH2 [Agonist C]	–	–	–	0	> 1000	100	–	–
CC(=O)N[C@@H](Cc1ccccc1)C(=O)N[C@H](CC(C)C)C(=O)N[C@@H](Cc1c[nH]c2ccccc12)C(=O)N[C@@H](CCCNC(=N)N)C(=O)N1CCC[C@H]1C(=O)N[C@@H](CCCNC(=N)N)C(=O)N[C@@H](CC(N)=O)C(N)=O [Agonist E, Ac-F-(D-L)-WRPRN-CONH2] (Ac-F[dL]WRPRN-NH2)	–	–	–	5	> 1000	93	–	–
CC(C)C[C@H](NC(=O)[C@H](Cc1ccccc1)NC(=O)[C@@H](N)Cc1ccc(O)cc1)C(=O)N[C@@H](Cc1ccccc1)C(=O)N[C@@H](CCCNC(=N)N)C(=O)N1CCC[C@H]1C(=O)N[C@@H](CCCNC(=N)N)C(=O)N[C@@H](CC(N)=O)C(N)=O [NMU-8, reference compound]	100	100	–	–	–	–	–	–
YFWRPRN-NH2 [Agonist A, YFWRPRN-CONH2]	–	–	–	0	> 1000	94	10	–
H-FWLFRARN-NH2 [Agonist L]	100	0	> 1000	–	–	–	–	–
WALFRARN-NH2 [Agonist M]	71	0	> 1000	–	–	–	–	180
CCCC[C@@H](NC(=O)[C@H](CCCNC(=N)N)NC(=O)[C@H](C)NC(=O)[C@H](CCCNC(=N)N)NC(=O)[C@H](Cc1ccccc1)NC(=O)[C@H](CC(C)C)NC(=O)[C@H](Cc1ccccc1)NC(=O)[C@@H](N)Cc1c[nH]c2ccccc12)C(N)=O [Agonist K, WFLFRAR-(D-Nle)-CONH2] (H-WFLFRAR[dNle]-NH2)	100	25	> 1000	–	–	–	–	–
CC(C)C[C@H](NC(=O)[C@H](Cc1c[nH]c2ccccc12)NC(=O)[C@@H](N)Cc1ccccc1)C(=O)N[C@@H](Cc1ccccc1)C(=O)N[C@@H](CCCNC(=N)N)C(=O)N[C@@H](C)C(=O)N[C@@H](CCCCNC(=N)N)C(=O)N[C@@H](CC(N)=O)C(N)=O [Agonist J, FWLFRA-(Harg)-N-CONH2] (H-FWLFRA[hArg]N-NH2)	63	34	> 1000	–	–	–	–	150
CC(C)C[C@@H](NC(=O)[C@H](Cc1ccccc1)NC(=O)[C@@H](N)Cc1ccc(O)cc1)C(=O)N[C@@H](Cc1c[nH]c2ccccc12)C(=O)N[C@@H](CCCNC(=N)N)C(=O)N1CCC[C@H]1C(=O)N[C@@H](CCCNC(=N)N)C(=O)N[C@@H](CC(N)=O)C(N)=O [Agonist B, YF-(D-L)-WRPRN-CONH2] (H-YF[dL]WRPRN-NH2)	–	–	–	35	> 1000	96	–	–
FALFRPRN-NH2 [Agonist N]	100	38.4	> 1000	–	–	–	–	–
C[C@@H](NC(=O)[C@H](Cc1ccccc1)NC(=O)[C@@H](N)Cc1ccc(O)cc1)C(=O)N[C@@H](Cc1c[nH]c2ccccc12)C(=O)N[C@@H](CCCNC(=N)N)C(=O)N1CCC[C@H]1C(=O)N[C@@H](CCCNC(=N)N)C(=O)N[C@@H](CC(N)=O)C(N)=O [Agonist D, YF-(D-A)-WRPRN-CONH2] (H-YF[dA]WRPRN-NH2; N-terminus assumed)	–	–	–	0	> 1000	100	–	–
CC(C)C[C@H](NC(=O)[C@H](Cc1c[nH]c2ccccc12)NC(=O)[C@H](Cc1ccccc1)NC(=O)CNC(=O)[C@H](CCCNC(=N)N)NC(=O)[C@H](CO)NC(=O)[C@H](CCC(N)=O)NC(=O)[C@H](CO)NC(=O)[C@H](C)NC(=O)[C@H](Cc1ccccc1)NC(=O)[C@@H]1CCCN1C(=O)[C@H](CO)NC(=O)[C@H](CCC(N)=O)NC(=O)[C@H](Cc1ccccc1)NC(=O)[C@H](CCC(=O)O)NC(=O)[C@H](CCC(=O)O)NC(=O)[C@H](CC(=O)O)NC(=O)[C@@H](NC(=O)[C@H](CCCNC(=N)N)NC(=O)[C@@H](N)Cc1ccccc1)C(C)C)C(=O)N[C@@H](Cc1ccccc1)C(=O)N[C@@H](CCCNC(=N)N)C(=O)N1CCC[C@H]1C(=O)N[C@@H](CCCCNC(=N)N)C(=O)N[C@@H](CC(N)=O)C(N)=O [Agonist O] (H-FRVDEEFQSPFASQSRGFWLFRP[hArg]N-NH2; N-terminus assumed)	92	64	400	–	–	–	–	3
CC(C)C[C@H](NC(=O)[C@H](Cc1c[nH]c2ccccc12)NC(=O)[C@H](Cc1ccccc1)NC(=O)CNC(=O)[C@H](CCCNC(=N)N)NC(=O)[C@H](CO)NC(=O)[C@H](CCC(N)=O)NC(=O)[C@H](CO)NC(=O)[C@H](C)NC(=O)[C@H](Cc1ccccc1)NC(=O)[C@@H]1CCCN1C(=O)[C@H](CO)NC(=O)[C@H](CCC(N)=O)NC(=O)[C@H](Cc1ccccc1)NC(=O)[C@H](CCC(=O)O)NC(=O)[C@H](CCC(=O)O)NC(=O)[C@H](CC(=O)O)NC(=O)[C@@H](NC(=O)[C@H](CCCNC(=N)N)NC(=O)[C@@H](N)Cc1ccccc1)C(C)C)C(=O)N[C@@H](Cc1ccccc1)C(=O)N[C@@H](CCCNC(=N)N)C(=O)N[C@@H](C)C(=O)N[C@@H](CCCCNC(=N)N)C(=O)N[C@@H](CC(N)=O)C(N)=O [Agonist P] (H-FRVDEEFQSPFASQSRGFWLFRA[hArg]N-NH2; N-terminus assumed)	81	1	> 1000	–	–	–	–	150
CCCC[C@@H](NC(=O)[C@H](CCCNC(=N)N)NC(=O)[C@@H]1CCCN1C(=O)[C@H](CCCNC(=N)N)NC(=O)[C@H](Cc1ccccc1)NC(=O)[C@H](CC(C)C)NC(=O)[C@H](Cc1c[nH]c2ccccc12)NC(=O)[C@H](Cc1ccccc1)NC(=O)CNC(=O)[C@H](CCCNC(=N)N)NC(=O)[C@H](CO)NC(=O)[C@H](CCC(N)=O)NC(=O)[C@H](CO)NC(=O)[C@H](C)NC(=O)[C@H](Cc1ccccc1)NC(=O)[C@@H]1CCCN1C(=O)[C@H](CO)NC(=O)[C@H](CCC(N)=O)NC(=O)[C@H](Cc1ccccc1)NC(=O)[C@H](CCC(=O)O)NC(=O)[C@H](CCC(=O)O)NC(=O)[C@H](CC(=O)O)NC(=O)[C@@H](NC(=O)[C@H](CCCNC(=N)N)NC(=O)[C@@H](N)Cc1ccccc1)C(C)C)C(N)=O [Agonist Q] (H-FRVDEEFQSPFASQSRGFWLFRPR[dNle]-NH2)	89	16	> 1000	–	–	–	–	–
H-FRVDEEFQSPFASQSRGYFWRPRN-NH2 [Agonist G]	–	–	–	33	–	97	–	–
Ac-FFRPRN-NH2 [Agonist F, Ac-FFRPRN-CONH2]	–	–	–	12	> 1000	30	> 1000	–
